One data set relates to B16F10 melanoma cells. As to the kind of experiment: MTT cell viability assay. In kind it is cell-based. The conditions noted are these: 0, 1, 3, 10, 30, 100 μg/mL, 24 h. How it is done: In this study, Ro was dissolved in dimethyl sulfoxide (DMSO) and diluted in DMEM and then filtered using a 0.22 μm membrane. The final concentration of DMSO in cell culture medium was 0.1%, and 0.1% DMSO-treated cells were used as controls. The effect of Ro on B16F10 cell growth in vitro was performed using the MTT assay. Briefly, exponentially growing B16F10 (1 × 10^4 cells/well) cells were seeded onto 96-well plates and incubated for 24 h in complete medium. After 24 h incubation, the cells were treated with various concentrations of Ro (0, 1, 3, 10, 30, 100 μg/mL) for 24 h, and MTT (0.5%, 20 μL) was then added to each well and incubated for an additional 4 h at 37 °C. The formazan crystals were dissolved in DMSO (150 μL), and the absorbance at 490 nm was measured using a microplate reader (BioTek Epoch; BioTek, Winooski, VT, USA)
The metabolites (standard substance) of Ro were dissolved in the same manner as Ro. Briefly, IVa, R1, and E were dissolved in dimethyl sulfoxide (DMSO), diluted in DMEM, and then filtered using a 0.22 μm membrane. The final concentration of DMSO in cell culture medium was 0.1%, and 0.1% DMSO-treated cells were used as controls. The effects of IVa, R1, and E on B16F10 cell growth were evaluated using the MTT assay as previously described. The cells were treated with various concentrations of IVa (0, 1, 3, 10, 30, 100 μg/mL), R1 (0, 5, 10, 20, 30, 40 μg/mL), and E (0, 2, 4, 6 μg/mL) for 24 h. After incubation, MTT (0.5%, 20 μL) was added and incubated for 4 h at 37 °C. Then the supernatants were carefully removed, and 150 μL DMSO was added to each well. After 10 min of incubation and vibration, the absorbance was read at a wavelength of 490 nm. IC50 values were calculated using Probit Analysis with SPSS 22.0 (SPSS Inc., Chicago, IL, USA).

The conditions of data set [1]: mouse, in vivo. How it is done: (§1) An anti-tumour assay was conducted in a mouse xenograft model. B16F10 cells were cultured in DMEM containing 10% FBS. After the collection of cells, the cells were re-suspended in normal saline to the appropriate concentrations. Next, 0.1 mL of the B16F10 cell suspension (1 × 10^6 cells) was subcutaneously injected via the right axillary region of the C57BL/6J mice. The tumour-bearing mice were randomly divided into three groups (n = 6/group): model control group, positive control group, and Ro (25 mg/kg) administration group. […] Normal and model mice were administered normal saline. The mice in the positive control group received CTX (20 mg/kg). The successive intraperitoneal injection of drugs into the mice from the day after tumour inoculation and the body weights were monitored every 2 days. After 15 days, all mice were sacrificed, and tumours were taken out and measured as previously described. The thymus and spleen were also removed and weighed to calculate the thymus and spleen indices. The tumour inhibition rate was calculated. The blood samples were collected from the retrobulbar vessels and added into tubes containing heparin. Subsequently, plasma samples were prepared by centrifugation for 10 min at 3800 rpm and stored at −80 °C for HPLC-MS analysis.

Another data set deals with erythrocytes. The data set can be described thus: Haemolysis test. In kind it is cell-based, Sprague Dawley rats. The conditions noted are these: all concentrations up to 100 μg/mL. How it is done:
(§2) To evaluate the haemocompatibility of Ro, the haemolysis test was performed as previously described. Arterial blood was obtained from healthy Sprague Dawley rats. Then erythrocytes were separated from the plasma and lymphocytes by centrifugation (3000 rpm, 5 min) at 4 °C, washed three times with normal saline, and suspended in normal physiological saline at a haematocrit of 2%. Erythrocytes were used immediately after isolation. Next, 2.5 mL erythrocyte suspension and 2.5 mL medicated saline solution were added to a 10 mL centrifuge tube. The final concentrations of Ro were 1, 3, 10, 30, and 100 μg/mL. The negative and positive controls were normal physiological saline and 0.2% Triton X-100, respectively. The samples were incubated for a specific time period at 37 °C for 60 min. Next, the tube was centrifuged at 3000 rpm for 5 min. Finally, the optical density (OD) was obtained at a wavelength of 545 nm. Three parallel samples were laid in each group. The mean value of the three samples was obtained as the group OD value. The HR was expressed as the percentage and calculated according to the equation:HR = (ODt − ODn)/(ODp − ODn) × 100%,(1) where ODt indicates the OD value of the tested group, and ODn and ODp are the OD values of the negative and positive control groups, respectively. A haemolysis rate less than 5% is regarded as a nontoxic effect level.

A further data set can be described thus: Haemolysis test. The conditions noted are these: Sprague-Dawley, rat, isolated erythrocytes (2% haematocrit suspension), 37 °C, 60 min, read-out: Haemolysis Rate (%). In kind it is cell-based, Sprague Dawley rats. How it is done:
as §2

Data set [2] relates to human umbilical vein endothelial cells (HUVECs). The data set can be described thus: Tube formation assay on Matrigel. In kind it is cell-based. The conditions noted are these: 5 h. The protocol: The tube formation assay was performed as previously described with some modifications. Matrigel (BD Biosciences, San Jose, CA, USA) was thawed overnight at 4 °C. Next, 50 μL Matrigel was coated on each well of the pre-chilled 96-well plates and then incubated at 37 °C for 1 h. HUVECs (5 × 10^4 cells/well) were seeded on the Matrigel and treated with various concentrations of Ro (0, 1, 3, 10, 30, 100 μg/mL), R1 (0, 5, 10, 20, 30, 40 μg/mL), IVa (0, 1, 3, 10, 30, 100 μg/mL), and E (0, 2, 4, 6, 8, 10 μg/mL). After incubation for 5 h, the formation of HUVEC tubular structures was captured using a microscope (Nikon eclipse Ti; Nikon, Tokyo, Japan). The tube length was quantified using Image-Pro Plus 6.0 software.

In the next data set the test system is B16F10 melanoma tumour. As to the kind of experiment: Tumour xenograft experiment in B16F10 tumour-bearing mice. In kind it is in vivo, C57BL/6J mice. The conditions noted are these: 25 mg/kg intraperitoneal, 15 days. How it is done:
as §1
A xenograft experiment was performed using the same method as described in Section 2.2. Briefly, after the mice were inoculated with tumour cells, they were randomly divided into […] (n = 6/group): model control group, positive control group (CTX, 20 mg/kg), R1 (25 mg/kg), IVa (25 mg/kg), and E (5 mg/kg) administration groups. […] Normal and model mice were administered normal saline. Drugs were intraperitoneally injected into the mice for 15 consecutive days. Tumour volumes were measured every 2 days, and tumour growth curves were plotted. At the end of the experiment, the mice were sacrificed, and the tumour weight and tumour growth inhibition rates were calculated.

For the compound `CC1(C)CC[C@]2(C(=O)O[C@@H]3O[C@H](CO)[C@@H](O)[C@H](O)[C@H]3O)CC[C@]3(C)C(=CC[C@@H]4[C@@]5(C)CC[C@H](O[C@@H]6O[C@H](C(=O)O)[C@@H](O)[C@H](O)[C@H]6O[C@@H]6O[C@H](CO)[C@@H](O)[C@H](O)[C@H]6O)C(C)(C)[C@@H]5CC[C@]43C)[C@@H]2C1` [Ro, ginsenoside Ro], in the data set on B16F10 melanoma cells, the “effect on B16F10 cell growth in vitro” value is listed as “little effect”. Also, in data set [1], the “Organ Indices Spleen” value is recorded as 3.54 ± 1.03 ×100, mg/g; the “Organ Indices Thymus” value was 1.67 ± 0.25 ×100, mg/g; the “Weight (g) After” value turned out to be 24.73 ± 1.43 g; the “Weight (g) Before” value is 22.91 ± 1.12 g. In addition, the “haemolysis ratio (HR%)” value in the data set on erythrocytes is listed as “less than 5%”. Also, in the data set “Haemolysis test” (1 μg/mL), the hemolysis at 60 min, 1 μg/mL worked out at 0.15 ± 0.13%. Besides, in the data set “Haemolysis test” (3 μg/mL), the hemolysis at 60 min, 3 μg/mL was 0.31 ± 0.13%. Further, in “Haemolysis test” (10 μg/mL), the hemolysis at 60 min, 10 μg/mL worked out at 0.23 ± 0.23%. The hemolysis at 60 min, 30 μg/mL in the data set “Haemolysis test” (30 μg/mL) amounted to 0.15 ± 0.13%. Besides, the hemolysis at 60 min, 100 μg/mL in the data set “Haemolysis test” (100 μg/mL) amounted to 0.31 ± 0.35%. Besides, in data set [2] (100 μg/mL), the HUVEC tube formation result is “stimulated tube formation”. The HUVEC tube formation result in data set [2] (1–30 μg/mL) is reported as “no effects”. The tumour inhibition rate with B16F10 melanoma tumour is 75.7%.

The record behind these values is article PMC6721120, “Inhibitory Effects of Ginsenoside Ro on the Growth of B16F10 Melanoma via Its Metabolites” (Molecules, 2019).
